Laboratory results reported in patent US20060182722A1, “Methods and materials for isolating isogenic islet cells” (priority 2005, published 2006).
Several values for one entry are separate records, joined by “and”; a condition that tells them apart may be missing. Equal values may be shown once. Each block holds one molecule with its values, some of them ahead of it.

Assays:
[1] = test system: type 1 diabetic recipients; assay: Example 3: safety assessments; assay type: in vivo, human; conditions: of 8 recipients; resolved or improved with dose reduction
Method: Safety was assessed by monitoring the severity and duration of adverse events. Efficacy was assessed by studying the recipients' insulin requirements, C-peptide levels, oral and intravenous glucose tolerance results, intravenous arginine stimulation responses, and HbA1c levels. Safety Assessments. Recipients underwent clinical, laboratory, and diagnostic safety assessments daily during their transplant hospitalization and at each of their 19 posttransplant study visits. Portal pressure was monitored during the transplant procedure. On days +1 and +7, ultrasonographic examination was done of the right upper quadrant including Doppler examination of the portal venous system. The severity and duration of any adverse events were monitored and recorded. Laboratory tests assessed hematology, chemistry, liver transaminases, lipids, standard creatinine clearance, and urinary albumin excretion. Adverse events were graded per the National Cancer Institute's Common Toxicity Criteria, Version 2.0.

[2] = Example 3: immunosuppressant whole blood trough levels; assay type: in vivo, human; conditions: for Drug Exposure: whole blood trough levels, individual recipients #1-#8
Method: Maintenance immunosuppression was initiated with sirolimus (0.2 mg/kg starting on day −2, followed by 0.1 mg/kg daily; target whole blood trough levels 5 to 15 ng/mL, as tolerated), and reduced-dose tacrolimus (0.015 mg/kg twice daily, starting on day +1; target whole blood trough levels 3 to 6 ng/mL). At 1 month posttransplant, tacrolimus was gradually replaced with mycophenolate mofetil (MMF; 750 to 1000 mg, twice daily); tacrolimus was either discontinued or dosed to a target trough level of <3 ng/mL. If target levels of sirolimus could not be achieved or maintained, however, tacrolimus (target level, 3 to 6 ng/mL) was continued.
The 5 recipients received daily MMF doses of 1.5 to 2.0 g. They either (a) achieved and maintained sirolimus trough levels >9 ng/mL, with tacrolimus trough levels of 0 to <3 ng/mL, or (b) in the absence of target sirolimus trough levels, tacrolimus trough levels of 3 to 6 ng/mL. The 3 recipients who resumed exogenous insulin therapy had received ≧1.5 g/day of MMF but had subtherapeutic sirolimus trough levels (<9 ng/mL) in the absence of measurable tacrolimus trough levels (<3 ng/mL). Please see Table 5 for immunosuppression.

[3] = Example 4: sirolimus whole blood trough concentration; assay type: in vivo, human
Method: Immunosuppression. […] On days 0 through +9 posttransplant, they received a daily 4-mg dose. […] The doses were based on those previously used to treat kidney graft rejection (Woddle et al., Transplantation 1999; 68:608-616). Premedication was with acetaminophen, diphenhydramine, and pentoxifylline. Sirolimus (Rapamune, Wyeth-Ayerst) was initiated orally at a dose of 0.2 mg/kg on day −2, followed by 0.1 mg/kg daily; the dose then was titrated and adjusted to achieve a target whole blood trough level of 5 to 10 ng/mL. Mean trough concentration prior to transplant on day 0 was 6.1±1.7 ng/mL and on day +2 was 6.7±1.9 ng/mL. Reduced-dose tacrolimus (Prograf, Fujisawa) was administered orally to all islet recipients beginning on […] posttransplant at 0.015 mg/kg 2 times per day; the dose was then adjusted to achieve a target whole blood trough level of 3 to 6 ng/mL (Shapiro et al., New Engl. J. Med. 2000; 343:230-238).

T1D patients = assay: Example 4: safety assessments; design: species or system human; conditions: in vivo
Excerpt: Safety assessments. Recipients underwent clinical, laboratory, and diagnostic safety assessments. Daily during their transplant hospitalization and at each of their 23 posttransplant study visits, the severity and duration of any adverse events were monitored and recorded. Laboratory tests included hematology, chemistry, liver transaminases, lipids, standard creatinine clearance, and urinary albumin excretion. Adverse events were graded based on the National Cancer Institute's Common Toxicity Criteria, Version 2.0.

[4] = Monitoring hOKT3γ1 (Ala-Ala): serum levels; assay type: in vivo, human; conditions: table: individual subjects #1-#6, text: mean; for Peak hOKT3γ1 (Ala-Ala) level achieved: serum
Excerpt: (§1) Monitoring hOKT3γ1 (Ala-Ala). Flow cytometry was used to enumerate CD2^+, CD4^+, CD8^+, CD25^+, and CD69^+ T cells. […] Anti-idiotype antibodies were identified by ELISA, by the use of plate-bound OKT3, or by flow cytometry, in order to measure the blockade of binding of OKT3 fluorescein isothiocyanate to CD3 (Chatenoud, Transplant Proc. 1993; 25:68-73).

[5] = test system: autoreactive and alloreactive T cell responses; conditions: clinical; cited from earlier work
[6] = test system: serum cytokines (IL-10, TNF-α); assay: Serum cytokines before and after hOKT3γ1 (Ala-Ala); assay type: in vivo, human
[7] = Anti-idiotype antibodies by ELISA; assay type: in vivo, human; conditions: all recipients treated
Excerpt: as §1

CD3 = molecular target: T1, CD3 (Homo sapiens, UniProt P07766); assay: Monitoring hOKT3γ1 (Ala-Ala): coating of the CD3 molecule on PBLs; assay type: in vivo; conditions: table: individual subjects #1-#6, text: mean
T1 construct: endogenous in cells; host or cells: peripheral blood lymphocytes (PBLs) of the treated patients
T1 sequence (P07766 23-207): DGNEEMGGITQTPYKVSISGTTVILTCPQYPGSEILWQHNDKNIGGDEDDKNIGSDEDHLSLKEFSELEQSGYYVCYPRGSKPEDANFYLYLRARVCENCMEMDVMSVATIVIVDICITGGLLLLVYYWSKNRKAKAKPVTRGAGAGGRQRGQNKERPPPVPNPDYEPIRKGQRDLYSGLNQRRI
T1 sequence (P09693 23-182 partner): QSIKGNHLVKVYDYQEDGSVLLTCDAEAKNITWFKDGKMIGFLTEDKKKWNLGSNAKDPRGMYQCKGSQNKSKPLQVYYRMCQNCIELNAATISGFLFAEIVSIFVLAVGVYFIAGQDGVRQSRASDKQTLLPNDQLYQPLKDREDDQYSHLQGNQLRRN
T1 sequence (P04234 22-171 partner): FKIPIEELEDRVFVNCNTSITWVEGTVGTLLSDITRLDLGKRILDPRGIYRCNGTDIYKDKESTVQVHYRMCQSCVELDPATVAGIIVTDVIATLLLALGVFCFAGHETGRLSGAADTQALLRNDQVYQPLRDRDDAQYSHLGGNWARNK
T1 sequence (P20963 22-164 partner): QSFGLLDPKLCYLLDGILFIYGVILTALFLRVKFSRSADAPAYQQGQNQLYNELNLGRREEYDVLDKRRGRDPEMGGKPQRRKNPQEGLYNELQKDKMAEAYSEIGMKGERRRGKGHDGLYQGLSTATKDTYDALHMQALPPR
Excerpt: as §1

[8] = the 3 recipients who resumed exogenous insulin therapy

Molecule: COc1c(C)c2c(c(O)c1C/C=C(\C)CCC(=O)OCCN1CCOCC1)C(=O)OC2 [MMF, mycophenolate mofetil]
Recipients with transient diarrhea after beginning MMF therapy [1]: 6

Trough levels ([2]; recipients with sustained insulin independence, case (a)): > 9 ng/mL
Trough levels [2, 8]: < 9 ng/mL
Mean trough concentration ([3]; day +2): 6.7 ± 1.9 ng/mL
Mean trough concentration ([3]; prior to transplant on day 0): 6.1 ± 1.7 ng/mL
Molecule: CO[C@H]1C[C@@H]2CC[C@@H](C)[C@@](O)(O2)C(=O)C(=O)N2CCCC[C@H]2C(=O)O[C@H]([C@H](C)C[C@@H]2CC[C@@H](O)[C@H](OC)C2)CC(=O)[C@H](C)/C=C(\C)[C@@H](O)[C@@H](OC)C(=O)[C@H](C)C[C@H](C)/C=C/C=C/C=C/1C [Sirolimus, sirolimus]
Drug Exposure [2]: 4-8 ng/ml and >9 ng/ml (3×) and 2-3 ng/ml and 7-9 ng/ml and 4-9 ng/ml and 6-8 ng/ml

Trough levels [2, 8]: < 3 ng/mL
Molecule: C=CC[C@@H]1/C=C(\C)C[C@H](C)C[C@H](OC)[C@H]2O[C@@](O)(C(=O)C(=O)N3CCCC[C@H]3C(=O)O[C@H](/C(C)=C/[C@@H]3CC[C@@H](O)[C@H](OC)C3)[C@H](C)[C@@H](O)CC1=O)[C@H](C)C[C@@H]2OC [Tacrolimus, tacrolimus]
Drug Exposure [2]: 0 ng/ml (2×) and 4-5 ng/ml and 4-6 ng/ml and <3 ng/ml and 3 ng/ml

Molecule: C[C@@H]1[C@H](O)[C@@H](C)/C=C/C=C/CC/C=C/C=C/C=C/C=C/C(O[C@H]2O[C@H](C)[C@@H](O)[C@H](N)[C@@H]2O)CC2O[C@](O)(CC(O)C(O)CCC(O)CC(O)CC(O)CC(=O)O[C@H]1C)CC(O)C2C(=O)O (stereo partly shown) [nystatin]
Serious adverse event determined to be related to treatment (T1D patients): generalized rash

Duration >80% CD3 coating (Total # of days) (CD3): 4.8 ± 2.6 days
Time to 80% CD3 coating (# of days) (CD3): 7.3 ± 2.9 days
Molecule: hOKT3γ1 (Ala-Ala): humanized anti-CD3 antibody retaining the binding region of OKT3; human IgG1 Fc mutated to prevent binding to the Fc receptor
Peak hOKT3γ1 (Ala-Ala) level achieved [4]: 1196 ± 821 ng/mL
Peak hOKT3γ1 (Ala-Ala) level achieved ([4]; listed as hOKT3γ1 (Ala—Ala)): 872 ng/mL and 450 ng/mL and 1028 ng/mL and 736 ng/mL and 2761 ng/mL and 1330 ng/mL
Days to negative hOKT3γ1 (Ala-Ala) level after last dose [4]: 61 ± 32 days
Days to negative hOKT3γ1 (Ala-Ala) level after last dose ([4]; listed as hOKT3γ1 (Ala—Ala)): 91 days and 111 days and 47 days and 50 days and 33 days and 34 days
Kidney graft rejection [5]: reversed kidney graft rejection
Side effects compared with the parental OKT3 antibody [5]: markedly fewer side effects
Mean peak serum TNF-α after administration ([6]; 29.9±31.7 pg/mL prior to administration): 267.6 ± 120.3 pg/mL
Serum IL-10 levels after administration compared with pre-dosing levels ([6]; all participants): increased in all participants
Anti-idiotype antibodies [7]: Absence of anti-idiotype antibodies
Duration >80% CD3 coating (Total # of days) (CD3; listed as hOKT3γ1 (Ala—Ala)): 4 days (2×) and 3 days and 2 days and 8 days (2×)
Time to 80% CD3 coating (# of days) (CD3; listed as hOKT3γ1 (Ala—Ala)): 9.5 days and 8.5 days and 11.5 days and 4.5 days (2×) and 5.5 days
